Experimental data: patent US20260374739A1, “SMALL MOLECULAR WEIGHT CHEMICAL COMPOUND TO ANTAGONIZE EPH-EPHRIN TETRAMERIZATION AND INHIBIT BIDIRECTIONAL SIGNALING” (THE BOARD OF REGENTS OF THE UNIVERSITY OF TEXAS SYSTEM, priority 2022, published 2026)
Several values for one entry are separate records, joined by “and”; a condition that tells them apart may be missing. Identical values can stand only once. Entries after “also recorded” stand apart in the source; their conditions may differ. Like-named read-outs stand apart in the source and are kept apart here.

Legend:
[1] = molecular target: T1, EphB1-EphrinB2 (EB2) (Rattus norvegicus, UniProt P09759); experiment: Alpha assay EphB1-EphrinB2 (EB2) interaction; assay type: binding, mouse EB2
T1 construct: rat EphB1-Fc residues 18-538; mouse EB2-His residues 18-232; purchased R&D Systems (EphB1-Fc); Sino Biologicals (EB2-His)
T1 sequence (P09759 18-538): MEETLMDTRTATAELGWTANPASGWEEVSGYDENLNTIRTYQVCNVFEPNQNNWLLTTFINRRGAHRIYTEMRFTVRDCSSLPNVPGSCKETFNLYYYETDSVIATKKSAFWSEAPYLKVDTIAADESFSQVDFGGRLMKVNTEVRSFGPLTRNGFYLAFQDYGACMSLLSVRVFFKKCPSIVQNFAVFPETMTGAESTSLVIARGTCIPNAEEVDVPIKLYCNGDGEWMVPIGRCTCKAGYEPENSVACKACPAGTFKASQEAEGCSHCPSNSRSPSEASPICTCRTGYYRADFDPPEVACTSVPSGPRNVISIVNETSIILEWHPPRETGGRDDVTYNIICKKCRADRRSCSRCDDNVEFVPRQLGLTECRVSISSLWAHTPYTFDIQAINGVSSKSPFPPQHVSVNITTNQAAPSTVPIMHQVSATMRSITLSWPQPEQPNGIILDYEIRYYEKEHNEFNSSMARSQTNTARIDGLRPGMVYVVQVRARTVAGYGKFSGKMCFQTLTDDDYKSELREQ
Excerpt: A chemiluminescent AlphaScreen™ bead-based proximity assay suitable for HTS was developed to measure the receptor-ligand interaction formed between EphB1 and EphrinB2 (EB2) ectodomains (FIG. 3). Here, when singlet oxygen molecules generated by high energy irradiation of donor beads travel over a constrained distance to excite acceptor beads, a chemiluminescent signal is generated and detected. If an analyte interferes with the EphB1-EB2 protein-protein interaction, close proximity of the donor and acceptor beads will be disrupted resulting in diminished or lost energy transfer and reduced acceptor bead emission.
Test was conducted in the Alpha assay, to see if purified soluble Reelin (previously shown to bind EphB1 ectodomain) can interfere with EphB1-EB2 binding.
The EphB1-EB2 screen was conducted using 0.8 nM of each protein, 50 ng beads per well, and assessed at 5 μM a library of −240,000 small, drug-like chemicals. […] They were also tested in a counter screen designed to identify non-specific compounds. Here, a single-protein Alpha assay was set up using a dual-tagged EphB2-His-Fc ectodomain protein that can bind both donor and acceptor beads to bring them into proximity. If a selected compound simply absorbs the chemiluminescent signal or interferes with bead function/binding or protein folding, it was hypothesized that it would also reduce signals in the single protein assay, and would consider it a false positive.

[2] = molecular target: T2, EphB1-EphrinB2 (Rattus norvegicus, UniProt P09759); experiment: Octet RED384, immobilized rat EphB1-Fc binding to 30 nM mouse EB2-His (400 sec / 500 sec); design: species or system mouse EphrinB2
T2 construct: rat EphB1-Fc residues 18-538; mouse EB2-His residues 18-232; purchased R&D Systems (EphB1-Fc); Sino Biologicals (EB2-His)
T2 sequence (P09759 18-538): T1 sequence (P09759 18-538)
Procedure: FIGS. 9A-9B depict Octet RED384 kinetic analysis sensorgram data of 30 nM soluble mouse EphrinB2 (mEB2-His) protein binding to sensorchip immobilized rat EphB1-Fc (FIG. 9A) or mouse EphB4-Fc (FIG. 9B) protein and effect of increased concentration of A20. Association time was for 400 sec and dissociation time was for 500 sec. Binding assays were conducted in PBS containing 0.05% Tween-20 and 1% DMSO.
The experiments described above involve measurements following long-term incubation of proteins with compound and thus represent information after interaction homeostasis has been achieved (FIG. 5A, FIG. 5B, FIG. 5C, and FIG. 5D) or after complexes are extensively washed (ELISAs and pulldowns, FIG. 8). To further analyze biophysical activity of A20 in real-time, kinetic studies were performed using an Octet® RED384 system to visualize the effect of compound on EphB1-EB2 protein-protein binding dynamics. In these experiments, EphB1-Fc ectodomain protein was first sparsely immobilized onto a set of Octet biosensors, […], 1, 10, or 100 μM A20 for a 400 sec association step followed by exposure to buffer only for a 500 sec dissociation step. […] The sensorgram provides various data of the binding kinetics, such as on rates (kon), off rates (koff), and equilibrium dissociation constant (KD). […] Specifically, EphB2 forms a dimer with EphrinB2, and that two dimers then assemble together into a circular tetramer structure (see FIG. 10 and Himanen J P, Rajashankar K R, Lackmann M, Cowan C A, Henkemeyer M, and Nikolov DB. (2001). Crystal structure of an Eph receptor-ephrin complex. Nature 414:933-8, which is incorporated herein by reference in its entirety).
The distinct dimerization and tetramerization interfaces are indicated. Circular tetramers further cluster together to pack in the crystal via additional ligand-ligand (red arrow) and receptor-receptor (blue arrow) interfaces. Many studies by multiple groups show the circular tetramer and tetramer clusters are observed in vivo and that they are needed in order to form the active complex necessary for the transduction of Eph-Ephrin bidirectional signals. […] A variety of methods can be used to compare the different sensorgrams obtained from a dose-dependent run of a drug compound to quantify its LA activity and obtain IC50 information. Single time points in the assay can be picked and response signals obtained at the different compound doses can be compared, such as at 380 sec near the end of the association step or at 100 sec after start of the dissociation step.
Antagonists are classified as either competitive/reversible or irreversible, depending on how the particular inhibitor interacts with its protein targets. A reversible antagonist will bind receptor protein via non-covalent intermolecular forces, and it will eventually dissociate from the receptor, freeing the protein to bind either another antagonist chemical in the solution or its bona-fide ligand protein. […] A competitive antagonist is thought to bind to receptor protein at the same binding site/interface as the endogenous ligand (aka Ephrin), but without activating the receptor. Ligand and antagonist will thus compete for the same binding site on the receptor; when antagonist is bound to receptor it will prevent ligand binding and increasing concentrations of an antagonist will displace in a dose-dependent fashion the ability of ligand from binding the receptor. Since, most receptor antagonists participate in a reversible, non-covalent, competitive type of interaction, two Octet experiments were conducted to determine if this was indeed the mode of action of A20. To determine if A20 is a reversible inhibitor/antagonist, rEphB1-Fc was first immobilized onto sensor chips, then pre-exposed to 100 μM A20, then washed to remove A20, and after baseline measurements then tested for binding to 30 nM soluble mEB2-His protein. […]

[3] = EphB1-EB2, AUC, read-out: IC50 (area under the curve)
[4] = Absolute Dissociation IC50, rEphB1-mEphrinB2, immobilized rat EphB1, 50 nM soluble mouse EphrinB2, dissociation, absolute
[5] = Relative Dissociation IC50, rEphB1-mEphrinB2, immobilized rat EphB1, 50 nM soluble mouse EphrinB2, dissociation, relative
[6] = rEphB1-mEphrinB2, immobilized rat EphB1, 50 nM soluble mouse EphrinB2, association, absolute, read-out: Absolute Association IC50
[7] = rEphB1-mEphrinB2, immobilized rat EphB1, 50 nM soluble mouse EphrinB2, association, relative, read-out: Relative Association IC50
[8] = rEphB1-mEphrinB2, immobilized rat EphB1, 50 nM soluble mouse EphrinB2, dissociation, absolute, read-out: Absolute Dissociation IC50

Compound	antagonism of EphB1-EB2 [1]	IC50 [2, 5] [µM]	IC50 [2, 6]	IC50 [2, 7]	other results
Oc1c(Cl)cc(CN2CCOCC2)c2cccnc12 [Compound 3, 7-chloro-5-(morpholinomethyl)quinolin-8-ol]	may be as effective as A20 at antagonizing EphB1-EB2 and EphB2-EB2 interactions	–	–	–	–
Oc1c(Br)cc(CN2CCOCC2)c2cccnc12 [Compound 5, 7-bromo-5-(morpholinomethyl)quinolin-8-ol]	–	–	–	–	IC50 [2, 3]: 9.33 µM; mode of antagonism ([2]; reversibility 100 μM pre-exposure, competition 0.1-1000 nM EB2, listed as A20): compound acts as a reversible inhibitor; also recorded: compound is a competitive inhibitor of EphB1-EB2 binding
O=[N+]([O-])c1cc(CN2CCOCC2)c2cccnc2c1O [Compound 10, 4-((8-hydroxy-7-nitroquinolin-1-ium-5-yl)methyl)morpholin-4-ium chloride]	–	1.99	99 µM	5.39 µM	IC50 [2, 4]: 2.48 µM
COCc1cc(CN2CCN(C)CC2)c(O)c2ncccc12 [Compound 77, 5-(methoxymethyl)-7-((4-methylpiperazin-1-yl)methyl)quinolin-8-ol, reference compound]	did not exhibit any activity	–	–	–	–
O=S1(=O)CCN(Cc2ccc(O)c3ncccc23)CC1 [Compound 15, 4-((8-hydroxyquinolin-1-ium-5-yl)methyl)thiomorpholin-4-ium 1,1-dioxide chloride]	–	0.9	100 µM	100 µM	–
Oc1ccc(CN2CCCCC2)c2cccnc12 [Compound 68, 5-(piperidin-1-ylmethyl)quinolin-8-ol, reference compound]	did not exhibit any activity	–	–	–	–
Oc1c(I)cc(CN2CCOCC2)c2cccnc12 [Compound 8, 4-((8-hydroxy-7-iodoquinolin-1-ium-5-yl)methyl)morpholin-4-ium chloride]	–	–	> 1.6 µM and 100 µM	0.28 µM and 0.53 µM	IC50 [2, 8]: 0.71 µM and 0.51 µM; IC50 ([2]; rEphB1-mEphrinB2, immobilized rat EphB1, 50 nM soluble mouse EphrinB2, dissociation, relative, read-out: Relative Dissociation IC50): 0.51 µM and 0.45 µM
Oc1ccc(CN2CCN(c3ccc(Br)cc3)CC2)c2cccnc12 [Compound 26, 5-((4-(4-bromophenyl)piperazin-1-yl)methyl)quinolin-8-ol]	strong dose-dependent antagonist activity	–	–	–	–
Oc1ccc(CN2CCOCC2)c2cccnc12 [Compound 1, 5-(morpholinomethyl)quinolin-8-ol]	some inhibitory activity though it was not apparent until higher concentrations	3.29	100 µM	100 µM	IC50 [2, 8]: 100 µM
Oc1c(CN2CCCCC2)cc(Cl)c2cccnc12 [Compound 76, 5-chloro-7-(piperidin-1-ylmethyl)quinolin-8-ol, reference compound]	did not exhibit any activity	–	–	–	–
COc1ccccc1N1CCN(Cc2cc(Br)c(O)c3ncccc23)CC1 [Compound 70, 7-bromo-5-((4-(2-methoxyphenyl)piperazin-1-yl)methyl)quinolin-8-ol]	may be as effective as A20 at antagonizing EphB1-EB2 and EphB2-EB2 interactions	–	–	–	–
Oc1c(Br)cc(CN2CCOCC2)c2cccnc12 [Compound 6, 4-((7-bromo-8-hydroxyquinolin-1-ium-5-yl)methyl)morpholin-4-ium chloride]	–	–	28.4 µM	0.74 µM	IC50 ([2]; 100 sec dissociation, read-out: IC50 (response at 100 sec after dissociation step)): 2.4 µM; IC50 ([2]; 380 sec association, read-out: IC50 (response at 380 sec after association)): 3.09 µM; IC50 [2, 3]: 3.63 µM; antagonist activity of salt vs free-base ([2]; fold better than free-base): 2-3 fold
Oc1ccc(CN2CCN(c3ccc(F)cc3F)CC2)c2cccnc12 [Compound 62, 5-((4-(2,4-difluorophenyl)piperazin-1-yl)methyl)quinolin-8-ol]	some inhibitory activity though it was not apparent until higher concentrations	–	–	–	–
Oc1ccc(CN2CCN(Cc3ccc(C(F)(F)F)cc3)CC2)c2cccnc12 [Compound 48, 5-((4-(4-(trifluoromethyl)benzyl)piperazin-1-yl)methyl)quinolin-8-ol]	–	2.37	100 µM	> 10 µM	IC50 [2, 4]: 15.1 µM
Oc1c(Cl)cc(CN2CCOCC2)c2cccnc12 [Compound 4, 4-((7-chloro-8-hydroxyquinolin-1-ium-5-yl)methyl)morpholin-4-ium chloride]	–	0.64	14.2 µM	0.93 µM	IC50 [2, 4]: 0.83 µM
